≈ marks a conversion by molar mass, not a printed value. Like-named read-outs stand apart in the source and are kept apart here. Where a SMILES comes first, the peptide text is derived from it. [ ]: non-standard residue; d: D form. dPhe(4-NO2) = N[C@H](Cc1ccc([N+](=O)[O-])cc1)C(=O)O; dPhe(3,4,5-F3) = N[C@H](Cc1cc(F)c(F)c(F)c1)C(=O)O; dTrp(1-Me) = Cn1cc(C[C@@H](N)C(=O)O)c2ccccc21; dPhe(3,4-F2) = N[C@H](Cc1ccc(F)c(F)c1)C(=O)O; dPhe(3-F) = N[C@H](Cc1cccc(F)c1)C(=O)O
How the values were obtained:
hKOR [1] = biological target: T1, hKOR (Homo sapiens, UniProt P41145); assay: Competition binding, [3H]U69,593, hKOR-CHO membranes; conditions: for Ki: [3H]U69,593, human KOR, ± S.E.M., three independent experiments, read-out: KOR Ki
[2] = Metabolic stability in human liver microsomes; type: in vitro ADME; conditions: human liver microsomes, 1 mg protein/mL; for half-life at 1 µM: 1 µM compound, 37 °C, read-out: HLM t1/2; for microsomal CLint at 1 µM: read-out: HLM CLint
Method: (§1) Evaluation of the metabolic stability of the macrocyclic tetrapeptides by human and mouse liver microsomes was performed by Curia Global (Buffalo, NY, USA). […]

[3] = Kinetic aqueous solubility; type: physicochemical; conditions: 1% DMSO, pH 7.4
Source text: Table A1 Stability of [D-Trp]- and [D-Phe^4]CJ-15,208 and selected analogs in human (HLMs) and mouse liver microsomes (MLMs)^1. and kinetic aqueous solubility. | column: Solubility ^2 / (µM)

hKOR [4] = biological target: T1, hKOR; assay: KOR cAMP assay using GloSensor-22F, antagonist mode (vs 10 nM U50,488); type: cell-based
Source text: A piggy-Bac (PB) transposon/transposase system was utilized to allow for the stable integration of the GloSensor-22F cAMP sensor (Promega, Madison, WI, USA) gene into genomic TTAA sites in Chinese hamster ovary cells already stably expressing the hKOR. The pFastBac hyperPB plasmid vector, which codes for the piggy-Bac transposon/transposase system, was utilized and was a kind gift from Dr. John Lueck. The multicistronic expression cassette developed for our experiments consisted of a CMV promoter driving constitutive expression of GloSensor-22F cAMP sensor, followed by an internal ribosome entry site (IRES) to drive the expression of codon-optimized HygR-P2A-mScarlet (hygromycin resistance gene and mScarlet separated by a 2A self-cleaving peptide element). To clone the expression cassette onto the pFastBac vector, the CMV promoter and GloSensor-22F were PCR amplified from pGloSensor-22F cAMP Plasmid (Promega), the IRES sequence was PCR amplified from pLVX-CMV-Galpha-oA ONE-GO (a gift from Dr. Mikel Garcia-Marcos, Addgene plasmid #189732), the HygR-P2A-mScarlet sequence was a kind gift from Dr. Lueck, and a bGH-poly(A) termination sequence was PCR amplified from pcDNA3.1(+). The pFastBac vector was linearized via overnight digestion with CspCI at 37 °C, which cuts between two inverted terminal repeat (ITR) sequences, and the corresponding backbone and all PCR fragments were gel purified and assembled via Gibson assembly using the Gibson Assembly MasterMix (New England Biolabs, Ipswich, MA, USA). The resulting pFastBac CMV GloSensor-22F IRES HygR-P2A-mScarlet bGH plasmid was transformed into NEB Stable Competent E. coli (New England Biolabs), miniprepped using the E.Z.N.A. Plasmid DNA Mini Kit (Omega Bio-Tek, Norcross, GA, USA), and sequence verified by nanopore whole-plasmid sequencing (Eurofins Genomics, Louisville, KY, USA).
3.0 × 10^6 hKOR-CHO cells were plated on a 6 cm dish and incubated for four h at 37 °C and 5% CO2 in DMEM (Corning Mediatech, Manassas, VA, USA) supplemented with 5% FBS (Corning Mediatech), 1% Penicillin/Streptomycin (Gibco, Waltham, MA, USA). The cells were then transfected with 2.0 μg pFastBac CMV GloSensor-22F IRES HygR-P2A-mScarlet bGH using PEI as a transfection reagent. The following day, transfected cells were reseeded onto a 10 cm dish at a density of 5.0 × 10^5 cells and 600 μg/mL hygromycin B (Gold Bio, St. Louis, MO, USA) was added to the culture media. Cells were cultured under selection antibiotics for seven days, and the selection process was monitored by the increase in abundance of mScarlet positive cells via epifluorescence microscopy.
Following the selection period, KOR-CHO-GLO cells were maintained at 37 °C and 5% CO2 in DMEM supplemented with 5% FBS, 1% Penicillin/Streptomycin and 300 μg/mL hygromycin B to reduce the likelihood of CMV promoter silencing. On the day of the assay, cells were detached with 0.05% trypsin (Gibco) and counted, then centrifuged (1000× g, 5 min) and resuspended in assay buffer (1xPBS, 0.1% glucose, 0.5 mM MgCl2) containing 4 mM D-luciferin substrate (Gold Bio) at approximately 2 million cells/mL. 25 μL of cells (~50,000/well) were seeded onto poly L-lysine-coated white 96-well flat bottom plates (Greiner Bio-One, Kremsmünster, Austria)) and returned to the incubator for 60 min. Following incubation, cells were allowed to equilibrate to room temperature protected from light (10–15 min). Initial luminescence readings (at least 10 cycles) were collected for each well using a FLUOstar Omega v.6.2 plate reader (BMG Labtech, Ortenberg, Germany), after which the plate was removed. Prepared 4x treatments of drug (25 μL) were added to appropriate wells followed by 50 μL of 20 μM forskolin (AmBeed, Buffalo Grove, IL, USA) before the plate was returned to the reader and luminescence measured until final plateau levels were achieved (20–30 min). Assays were performed in duplicate and repeated at least three times.

hKOR [5] = biological target: T1, hKOR; assay: KOR cAMP assay using GloSensor-22F, agonist mode (KOR-CHO-GLO cells); type: cell-based; conditions: for Emax at 10 µM: read-out: KOR Efficacy (%)
human MOR = biological target: T2, human MOR (Homo sapiens, UniProt P35372); assay: biochemical; type: binding
T2 construct: expressed in transfected cells

[6] = Metabolic stability in mouse liver microsomes; type: in vitro ADME; conditions: mouse liver microsomes, 1 mg protein/mL; for half-life at 1 µM: 1 µM compound, 37 °C, read-out: MLM t1/2; for microsomal CLint at 1 µM: read-out: MLM CLint
Method: as §1

C57BL/6J mice = assay: 55 °C warm-water tail-withdrawal assay, antinociception; type: in vivo, mouse
Method: For intracerebroventricular administration, peptides were dissolved in DMSO at a concentration of 20 mM (100 nmol/5 µL), then diluted to test doses in a final vehicle solution of 50%DMSO/50% saline (0.9%). For all other testing (for oral administration), peptides were made fresh each day for testing in a final vehicle solution of 10% DMSO/10% Solutol/80% saline (0.9%).
Intracerebroventricular injections were made directly into the lateral ventricle according to the modified steps detailed previously. The volume of all i.c.v. injections was 5 μL, using a 10 μL Hamilton microliter syringe. The mouse was lightly anesthetized with isoflurane, an incision was made in the scalp, and the injection was made 2 mm lateral and 2 mm caudal to bregma at a depth of 3 mm.
The dose response of analogs 3, 6, 9 and 14 were also assessed following administration of one of up to four additional oral (p.o.) doses (1–30 mg/kg).

CNS KORs = CNS KORs (Mus musculus, UniProt P33534); assay: 55 °C WWTW assay, antagonism of centrally administered U50,488 (30 nmol, i.c.v.); conditions: 2.5 h pretreatment, 30 mg/kg, p.o. (9: 10 mg/kg, p.o.)
[7] = [3H]DAMGO, human MOR, ± S.E.M., three independent experiments, read-out: MOR Ki
[8] = 30 mg/kg, p.o., 30 min after administration

| Compound | Selectivity (MOR Ki/KOR Ki) (hKOR [1]; MOR Ki/KOR Ki) | Ki (hKOR [1]) | half-life at 1 µM [2] | microsomal CLint at 1 µM [2] | solubility kinetic [3] | IC50 (hKOR [4]) | Emax at 10 µM (hKOR [5]) | Ki (human MOR; [7]) | half-life at 1 µM [6] | microsomal CLint at 1 µM [6] | Selectivity (MOR Ki/KOR Ki) (hKOR [1]) | IC50 (hKOR [4]; antagonism of an IC80 concentration (10 nM) of U50,488 in the cAMP assay, ± SEM, read-out: KOR Antag. IC50) | activity type in the cAMP assay (hKOR [5]) | KOR Efficacy (%) (hKOR [5]; mean % inhibition ± SEM at 10 µM relative to the KOR agonist U50,488, forskolin-stimulated cAMP) | Ki (human MOR) | antinociception vs vehicle (C57BL/6J mice; 30 nmol, i.c.v., positive control) | antinociception vs vehicle (C57BL/6J mice; [8]) | antinociception (C57BL/6J mice; p.o. dose response, significant only first 10 min at high doses) | antagonism of CNS KORs (CNS KORs) |
| --- | --- | --- | --- | --- | --- | --- | --- | --- | --- | --- | --- | --- | --- | --- | --- | --- | --- | --- | --- |
| Cn1cc(C[C@H]2NC(=O)[C@H](Cc3ccccc3)NC(=O)[C@H]3CCCN3C(=O)[C@H](Cc3ccccc3)NC2=O)c2ccccc21 [Analog 2, [D-Trp(Me)]CJ-15,208] (cyclo(F[dP]F[dTrp(1-Me)])) | 2 | 16 ± 0.8 nM | 2.4 min | 286 µL/min/mg | 12 µM (≈ 7.1 µg/mL) | 220 ± 32 nM | 14 ± 7.1% | 36 ± 2.6 nM | 3.3 min | 211 µL/min/mg |  |  |  |  |  |  |  |  |  |
| Cc1cc(C)cc([C@@H]2CCCN2Cc2ccc(Oc3ccc(C(N)=O)cc3F)cc2)c1 [Aticaprant, reference compound] |  | 0.77 ± 0.1 nM |  |  |  |  |  |  |  |  | 19 | 8 ± 1.7 nM | inverse agonist | −48 ± 3.0 ^8% | 15 ± 2 nM |  |  |  |  |
| CN1CC[C@]23c4c5ccc(O)c4O[C@H]2[C@@H](O)C=C[C@H]3[C@H]1C5 [morphine, reference compound] |  |  |  |  |  |  |  |  |  |  |  |  |  |  |  | significant antinociception | significant antinociception |  |  |
| COc1ccc(C[C@H]2NC(=O)[C@H](Cc3ccccc3)NC(=O)[C@H]3CCCN3C(=O)[C@H](Cc3ccccc3)NC2=O)cc1 [Analog 18, [D-Tyr(Me)^4]CJ-15,208] (cyclo(F[dP]F[dY](Me))) |  | 150 ± 16 nM |  |  |  |  |  |  |  |  |  |  |  |  |  |  | significant antinociception |  |  |
| O=C1N[C@H](Cc2ccc([N+](=O)[O-])cc2)C(=O)N[C@@H](Cc2ccccc2)C(=O)N2CCC[C@@H]2C(=O)N[C@H]1Cc1ccccc1 [Analog 16] (cyclo(F[dP]F[dPhe(4-NO2)])) | 9 | 7 ± 0.99 nM | 6.7 min | 103 µL/min/mg | 6.7 µM (≈ 3.91 µg/mL) | 210 ± 13 nM | 7.3 ± 7.3% | 61 ± 2.7 nM | 4.4 min | 159 µL/min/mg |  |  |  |  |  |  |  |  |  |
| O=C1N[C@H](Cc2ccc(F)c(F)c2)C(=O)N[C@@H](Cc2ccccc2)C(=O)N2CCC[C@@H]2C(=O)N[C@H]1Cc1ccccc1 [Analog 8] (cyclo(F[dP]F[dPhe(3,4-F2)])) | 9 | 6.6 ± 0.73 nM | 2.2 min | 309 µL/min/mg | 9.5 µM (≈ 5.46 µg/mL) | 170 ± 28 nM | 13 ± 2.7% | 57 ± 5.6 nM | 1.1 min | 629 µL/min/mg |  |  |  |  |  |  | significant antinociception |  |  |
| O=C1N[C@H](Cc2cccc(F)c2)C(=O)N[C@@H](Cc2ccccc2)C(=O)N2CCC[C@@H]2C(=O)N[C@H]1Cc1ccccc1 [Analog 6, [D-Phe(m-F)^4]CJ-15,208] (cyclo(F[dP]F[dPhe(3-F)])) | 5 | 32 ± 5.8 nM | 1.8 min | 376 µL/min/mg | 26 µM (≈ 14.5 µg/mL) | 340 ± 58 nM | 11 ± 5.6% | 160 ± 15 nM | 2.1 min | 331 µL/min/mg |  |  |  |  |  |  |  | < 20% | ineffective |
| O=C1N[C@H](Cc2cc(F)c(F)c(F)c2)C(=O)N[C@@H](Cc2ccccc2)C(=O)N2CCC[C@@H]2C(=O)N[C@H]1Cc1ccccc1 [Analog 11] (cyclo(F[dP]F[dPhe(3,4,5-F3)])) | 4 | 12 ± 0.44 nM | 1.6 min | 447 µL/min/mg | 4.8 µM (≈ 2.84 µg/mL) | 160 ± 19 nM | 2.2 ± 6.2% | 46 ± 5.4 nM | 2.9 min | 238 µL/min/mg |  |  |  |  |  |  |  |  |  |
| O=C1N[C@H](Cc2cc(F)c(F)cc2F)C(=O)N[C@@H](Cc2ccccc2)C(=O)N2CCC[C@@H]2C(=O)N[C@H]1Cc1ccccc1 [Analog 10] | 10 | 27 ± 3.3 nM | 1.5 min | 462 µL/min/mg | 7.4 µM (≈ 4.39 µg/mL) | 290 ± 40 nM | 19 ± 6.8% | 270 ± 30 nM | 1 min | 699 µL/min/mg |  |  |  |  |  |  |  |  |  |
